{"source": "patent US11033572B2", "about": "“Molecular adjuvants for enhanced cytosolic delivery of active agents” (Universiteit Gent, priority 2017, dated 2021)", "format_in_all_cases": "cell-based", "key": {"H1299_eGFP cells [1]": {"tested_on": "H1299_eGFP cells", "assay": "Cell viability following CAD incubation (CellTiter GLO)", "procedure": "The silencing potential of siPLK1-NGs was established through evaluating the cell viability. Hereto, we applied the CellTiter GLO® assay (Promega, Belgium) according to the manufacturer's guidelines. Before initiating the assay, the culture plates and reconstituted assay buffer were placed at room temperature for 30 minutes. Next, the culture medium was replaced by 250 μL fresh cell medium and an equal volume of assay buffer was added. To induce complete cell lysis, the plates were shaken during 2 minutes and the signal was allowed to stabilize the following 10 minutes. 100 μL from each well was subsequently transferred to an opaque 96-well plate, which was measured with a GloMax® 96 Microplate Luminometer (Promega, Belgium). Three biological replicates were performed and data are expressed as the mean cell viability±SEM.\nPlease note that we only applied siCTRL-loaded NGs in this set of experiments. With the interest of evaluating the possible effect of our treatment on cell viability, the CellTiter GLO® assay was performed as described above. Again, three biological replicates were performed and data are expressed as the mean±SEM."}, "H1299_eGFP cells [2]": {"tested_on": "H1299_eGFP cells", "assay": "Side scatter (cellular granularity) by flow cytometry", "procedure": "For silencing experiments, H1299_eGFP cells were seeded in 24 well plates at a density of 35000 cells/well and were allowed to settle overnight. Subsequently, the cells were transfected and treated with small molecular adjuvants as described previously. Note that for every siEGFP or siPLK1 condition an siCTRL sample was included to account for potential off target effects. SiNG-mediated eGFP silencing was determined by flow cytometry. […] The cells were collected, centrifuged during 5 minutes at 300 g, resuspended in 300 μL flow buffer and kept on ice until analysis. For each sample the forward and side scatter as well as the green fluorescent signal were measured for at least 5000 cells."}, "H1299_WT cells": {"tested_on": "H1299_WT cells", "assay": "Sphingomyelin detection with lysenin", "details": "after siNG transfection", "procedure": "Cell seeding, transfection and DL treatment of the H1299_WT cells occurred similar to the previous microscopy experiments. The subsequent staining procedure was carried out at room temperature. Following one washing step with PBS, the cells were fixed with 4% PFA during 15 minutes. The fixative was removed, the cells washed twice with PBS and permeabilized with 0.5% Tween 20 for 15 minutes. Next, the cells were washed twice with blocking buffer (BB, 2 wt % bovine serum albumin (Amresco, USA) in PBS) and kept in BB during 30 minutes. Upon removal, the cells were incubated 2 hours with a 1 μg/mL lysenin (Sigma-Aldrich, Belgium) solution in BB. Next the cells were washed twice with PBS before incubating 1 hour with the lysenin rabbit anti-human antiserum (1:500 in BB, Peptanova, Germany). Before and after the subsequent 1 hour incubation period with the secondary goat anti-rabbit Alexa Fluor 647 antibody (1:500 in BB, Molecular Probes™, Belgium), cells were washed with BB. Finally the cells were washed with PBS and stored at 4° C. covered with Vectashield containing DAPI. Using the 408 nm and 633 nm laser lines, the nuclei and sphingomyelin were excited respectively and detected with a LSCM and a 60× oil immersion objective."}}, "data": [{"molecule": "Clc1ccc2c(c1)CCc1cccnc1C2=C1CCNCC1", "note": "[(3) Desloratadine, Desloratadine]", "values": [{"measurement": "additional cytotoxicity compared to siNGs alone", "setting": "H1299_eGFP cells [1]", "value": "did not cause any additional cytotoxicity"}, {"measurement": "transfected cells remaining viable", "setting": "H1299_eGFP cells [1]; human, 20 h, 40 μM", "value": "~60", "unit": "%"}, {"measurement": "cellular granularity (SSC) at eGFP readout", "setting": "H1299_eGFP cells [2]; 40 μM, 2 h incubation", "value": "significant though minor augmentation"}, {"measurement": "increase in SSC signal", "setting": "H1299_eGFP cells [2]; siNG transfection then 40 μM", "value": 1.8, "unit": "fold"}, {"measurement": "sphingomyelin (lysenin) signal", "setting": "H1299_WT cells", "value": "signal increases as a function of the desloratadine concentration"}]}]}
